The values below are quoted from earlier work in patent publication US20230073516A1, “INTRAORAL FAST-DISINTEGRATING FORMULATION CONTAINING HEMP OIL EXTRACT OR HEMP POWDER EXTRACT AS RAW MATERIAL OF FORMULATION” (CTC SCIENCE INC., priority 2019, published 2023).

The conditions of the data set: absorbed while passing through the gastrointestinal tract.

In the case of `C=C(C)[C@@H]1CCC(C)=C[C@H]1c1c(O)cc(CCCCC)cc1O` [cannabidiol], the Bioavailability of cannabidiol was 13-19%.
